ChEMBL document CHEMBL1128920, “Tetrahydrothienopyridine derivatives as novel GPIIb/IIIa antagonists” (Bioorg Med Chem Lett, 1996)
Values joined by “and” are separate entries in the source; they are usually repeats but may differ in a detail not shown here. Equal values may be shown once.

Experiments:
Homo sapiens = species: Homo sapiens; assay: Inhibitory activity against ADP-mediated human platelet aggregation in human platelet rich plasma; assay type: functional
[1] = biological target: T1, Integrin alpha-IIb/beta-3 (Homo sapiens, UniProt P05106+P08514); assay: Biotinylated fibrinogen binding to alpha IIb beta-3 integrin; assay type: protein-complex assay
[2] = biological target: T1, Integrin alpha-IIb/beta-3; assay: Inhibition of vWF binding to GPIIb/IIIIa receptor; assay type: protein-complex assay
[3] = Inhibition of fibronectin binding to GPIIb/IIIIa fibronectin receptor
[4] = biological target: T1, Integrin alpha-IIb/beta-3; assay: Inhibition of Vitronectin binding to GPIIb/IIIIa Vitronectin receptor; assay type: protein-complex assay
[5] = biological target: T1, Integrin alpha-IIb/beta-3; assay: Inhibition of biotinylated fibrinogen binding to alphaIIb-beta3 integrin; assay type: protein-complex assay
[6] = biological target: T1, Integrin alpha-IIb/beta-3; assay: Inhibition of vWF binding to alphaIIb-beta3 integrin; assay type: protein-complex assay

T1 sequence (P05106 27-788 limits assumed): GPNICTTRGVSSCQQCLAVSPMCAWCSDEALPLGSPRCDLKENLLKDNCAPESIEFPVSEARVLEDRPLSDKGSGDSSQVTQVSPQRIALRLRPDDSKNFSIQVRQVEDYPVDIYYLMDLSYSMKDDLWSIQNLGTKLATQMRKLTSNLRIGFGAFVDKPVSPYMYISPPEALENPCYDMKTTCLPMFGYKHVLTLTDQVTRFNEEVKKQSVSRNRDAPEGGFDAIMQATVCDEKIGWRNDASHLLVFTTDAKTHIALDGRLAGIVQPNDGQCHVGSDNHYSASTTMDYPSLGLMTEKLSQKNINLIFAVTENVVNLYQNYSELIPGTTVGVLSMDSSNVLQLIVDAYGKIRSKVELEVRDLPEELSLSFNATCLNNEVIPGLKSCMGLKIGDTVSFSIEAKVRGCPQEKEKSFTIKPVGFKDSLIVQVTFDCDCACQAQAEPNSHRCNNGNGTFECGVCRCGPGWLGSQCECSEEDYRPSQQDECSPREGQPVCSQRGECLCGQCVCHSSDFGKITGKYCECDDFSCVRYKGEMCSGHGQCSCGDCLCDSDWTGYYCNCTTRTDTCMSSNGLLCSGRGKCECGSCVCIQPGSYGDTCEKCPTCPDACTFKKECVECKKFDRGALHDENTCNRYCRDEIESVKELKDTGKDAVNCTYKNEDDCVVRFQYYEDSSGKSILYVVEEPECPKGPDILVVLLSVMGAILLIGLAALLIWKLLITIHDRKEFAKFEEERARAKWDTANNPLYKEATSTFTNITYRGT
T1 sequence (P08514 32-887 limits assumed): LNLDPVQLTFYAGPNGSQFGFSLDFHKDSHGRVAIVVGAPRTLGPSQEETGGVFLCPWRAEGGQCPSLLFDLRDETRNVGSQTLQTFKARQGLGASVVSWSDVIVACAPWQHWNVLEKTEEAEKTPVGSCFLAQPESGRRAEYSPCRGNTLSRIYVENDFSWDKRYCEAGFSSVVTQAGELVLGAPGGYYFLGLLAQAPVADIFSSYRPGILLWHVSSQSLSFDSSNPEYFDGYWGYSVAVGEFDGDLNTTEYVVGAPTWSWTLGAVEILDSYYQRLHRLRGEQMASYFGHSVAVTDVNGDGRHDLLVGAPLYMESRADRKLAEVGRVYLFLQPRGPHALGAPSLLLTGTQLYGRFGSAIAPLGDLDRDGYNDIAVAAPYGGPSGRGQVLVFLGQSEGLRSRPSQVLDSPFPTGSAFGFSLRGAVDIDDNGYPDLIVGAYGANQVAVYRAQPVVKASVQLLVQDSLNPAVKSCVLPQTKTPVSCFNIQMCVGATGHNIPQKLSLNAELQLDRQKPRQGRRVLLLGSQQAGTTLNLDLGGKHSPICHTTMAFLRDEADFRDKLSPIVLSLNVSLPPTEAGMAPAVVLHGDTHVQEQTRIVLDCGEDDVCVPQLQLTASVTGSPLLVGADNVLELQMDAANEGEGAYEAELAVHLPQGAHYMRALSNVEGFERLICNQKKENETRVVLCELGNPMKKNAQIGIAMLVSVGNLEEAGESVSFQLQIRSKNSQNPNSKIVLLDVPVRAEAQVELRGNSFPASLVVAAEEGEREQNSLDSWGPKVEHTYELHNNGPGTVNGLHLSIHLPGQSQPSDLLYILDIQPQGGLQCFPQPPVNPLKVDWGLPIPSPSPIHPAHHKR
T1 sequence (P08514 891-1039 limits assumed): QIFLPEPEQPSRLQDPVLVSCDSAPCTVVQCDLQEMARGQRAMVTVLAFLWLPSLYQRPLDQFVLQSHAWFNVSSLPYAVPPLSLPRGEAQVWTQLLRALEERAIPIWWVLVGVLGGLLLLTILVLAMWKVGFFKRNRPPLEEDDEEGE

SMILES	IC50 (Homo sapiens) [nM]	IC50 [1]	also measured
O=C(O)COc1cnc(C(=O)CNC(=O)c2cc3c(s2)CCNC3)cc1OCC(=O)O	470	9.8 nM	
NC(N)=NCCC[C@H](N)C(=O)NCC(=O)N[C@@H](CC(=O)O)C(=O)O	87000		IC50 [2]: 4000 nM; IC50 [3]: 510 nM; IC50 [4]: 1400 nM; IC50 [5]: 76 nM
O=C(O)COc1ccc(C(=O)CNC(=O)CCC2CCNCC2)cc1OCC(=O)O	350	42 nM	
O=C(O)COc1ccc(C(=O)CNC(=O)CC2CCNCC2)cc1OCC(=O)O	10000	> 100 nM	
Cc1c(C(=O)NCC(=O)c2ccc(OCC(=O)O)c(OCC(=O)O)c2)sc2c1CNCC2	2500	18 nM	
O=C(O)COc1ccc(C(=O)CNC(=O)C2CCNCC2)cc1OCC(=O)O	9800	> 1000 nM	
O=C(O)COc1ccc(C(=O)CNC(=O)c2sc3c(c2Cc2ccccc2)CNCC3)cc1OCC(=O)O	> 10000	62 nM	
O=C(O)COc1ccc(C(=O)CNC(=O)CCCC2CCNCC2)cc1OCC(=O)O	9000		IC50 [5]: > 100 nM
NCC1CCC(C(=O)NCC(=O)c2ccc(OCC(=O)O)c(OCC(=O)O)c2)CC1 (centres undefined)	4300		IC50 [5]: 730 nM

Continued, in another order:

IC50 (Homo sapiens) [nM]	IC50 [1]	SMILES	also measured
1500	> 100 nM	O=C(O)COc1ccc(C(=O)CNC(=O)c2cc3c(s2)CCNC3)c(OCC(=O)O)c1	
1200	31 nM	O=C(O)COc1ccc(C(=O)CNC(=O)c2cc3c(s2)CCNC3)cc1	
> 10000	80 nM	O=C(O)CCc1ccc(C(=O)CNC(=O)c2cc3c(s2)CCNC3)cc1	
150	6 nM	O=C(O)COc1ccc(C(=O)CNC(=O)c2cc3c(s2)CCNCC3)cc1OCC(=O)O	
160	4.7 nM and 5.6 nM	O=C(O)COc1ccc(C(=O)CNC(=O)c2cc3c(s2)CCNC3)cc1OCC(=O)O	IC50 [3]: > 100000 nM; IC50 [6]: 28 nM; IC50 [4]: > 100000 nM
230	1.4 nM	O=C(O)COc1ccc(C(=O)CNC(=O)c2cc3c(s2)CNCC3)cc1OCC(=O)O	
1600		O=C(O)COc1ccc(C(=O)CNC(=O)c2cc3c(s2)CNC3)cc1OCC(=O)O	IC50 [5]: > 100 nM
720	100 nM	O=C(O)COc1ccc(C(=O)CNC(=O)c2cc3c(s2)CCNC3)nc1	
> 10000	> 1000 nM	O=C(O)COc1cc(OCC(=O)O)cc(C(=O)CNC(=O)c2cc3c(s2)CCNC3)c1	
1900	8.7 nM	O=C(O)COc1ccc(C(=O)CNC(=O)c2cc3c(s2)CCCNC3)cc1OCC(=O)O	
